We go through four compounds from US7985745B2, “Method for pain treatment” (Abbott Laboratories, priority 2006, dated 2011).

pKi: −log10 of the molar value. Like-named read-outs stand apart in the source and are kept apart here.

Data set [1] addresses T1, histamine H4 receptor (Homo sapiens, UniProt Q9H3N8).
T1 construct: expressed in transfected cells; host or cells: HEK-293 cells, transient transfection with pCINeo vector; membranes
Put plainly: FLIPR Ca2+ assay in HEK-293 cells stably expressing histamine H4 receptor and Gαqi5. Type of data set: cell-based. To be noted: Kb for antagonists and inverse agonists, EC50 for partial agonists; block of histamine-induced Ca2+ increase. The source says: Histamine H4 receptors from mammalian species have been cloned. Methods to clone, express, and assess the potency and functional activity of such cloned genes are well known to those skilled in the art of molecular biology. […] Before testing, cells are loaded with a Ca^+2 sensitive fluorescent dye, in this case Fluo-4. In the case of partial agonist or agonist ligands, addition of compound to the cells leads to the increase in intracellular Ca^+2 which is detected by FLIPR (Fluorescence Imaging Plate Reader; Molecular Devices, Sunnyvale, Calif.) technology. […] The fluorescence intensities measured before addition of the test compound are subtracted from the fluorescence intensities at later time points. Peak response values determined at each concentration of ligand are expressed as a percentage of the response obtained with the full agonist histamine. Concentration versus response data are analyzed to obtain compound potency as Kb values for antagonists and inverse agonists and as EC50 values for partial agonists.

Data set [2] concerns the target T1, histamine H4 receptor. Put plainly: 3H-histamine competition binding assay, membranes of transfected HEK-293 cells. Here is the method:
In this assay, membranes were prepared from HEK-293 cells transiently transfected with the pCINeo expression vector harboring the histamine H4 receptor by homogenization of the cells on ice in TE buffer (50 mM Tris-HCl buffer, pH 7.4, containing 5 mM EDTA), 1 mM benzamidine, 2 μg/ml aprotinin, 1 μg/ml leupeptin, and 1 μg/ml pepstatin. The homogenate was centrifuged at 40,000 g for 20 minutes at 4° C. This step was repeated, and the resulting pellet was resuspended in TE buffer. Aliquots were frozen at −70° C. until needed. On the day of assay, membranes were thawed and diluted with TE buffer. Competition radioligand binding assays were performed with increasing concentrations of test compound in the presence of [^3H]-histamine incubated at 25° C. for 1 h in a total volume of 0.5 ml of 50 mM Tris, 5 mM EDTA, pH 7.4. All binding reactions were terminated by filtration under vacuum onto polyethylenimine (0.3%) presoaked Unifilters (PerkinElmer Life Sciences) or Whatman GF/B filters (Whatman, Clifton, N.J.) followed by three brief washes with 4 ml of ice-cold TE buffer. Bound radiolabel was determined by liquid scintillation counting. For all of the radioligand competition binding assays, IC50 values and Hill slopes were determined by Hill transformation of the data and Ki values were determined by the Cheng-Prusoff equation.

Data set [3] has as its system neuropathic pain. The experiment in a line: Chung model: L5/L6 spinal nerve ligation, mechanical allodynia by von Frey filaments. Type of data set: in vivo, rat. The following applies: 100 micromole/kg i.p., 30 minutes before testing. Here is the method: Animals were prepared for testing, by use of a surgical procedure that induces neuropathic pain in one paw. Male Sprague Dawley rats were purchased from Charles River (Portage, Mich.). Prior to surgery, animals were housed in groups and maintained in a temperature-regulated environment. Following nerve ligation surgery, animals were housed in groups, and had access to food and water ad libitum.
The L5 and L6 spinal nerves of anesthetized rats were tightly ligated in a manner described previously (see Kim and Chung, Pain (1992) vol. 50 pp. 355-363). An incision was made on the dorsal portion of the hip and the muscle was blunt-dissected to reveal the spinal processes. The L6 transverse process was removed, and the left side L5 and L6 spinal nerves were tightly ligated with 5.0 braided silk suture. The wound was cleaned, the membrane sewn with 4.0 dissolvable Vicryl suture and the skin closed with wound clips. The paw affected by the surgical procedure (the left paw) develops an allodynic response, a hypersensitivity to mechanical and other stimuli; neuropathic pain is assessed as an increased sensitivity in the surgically affected (left) allodynic paw compared to the control paw on the right side, and measured by comparing the response of the (left side) allodynic paw to the response of the unaffected right side control paw.
For the assessment of neuropathic pain, mechanical allodynia in the affected paw of animals that had undergone spinal nerve ligation was evaluated using testing with von Frey filaments. As described previously by S. R. Chaplan, et al (“Quantitative assessment of tactile allodynia in the rat paw” J. Neurosci. Meth. (1994) vol. 53 pp. 55-63), two weeks following surgery rats were acclimated to a testing box constructed of plexiglass with a wire mesh floor which allowed access to the plantar surface of the animal's hindpaws. Using an Up-Down method (Dixon, Annual Rev. Pharmacol. Toxicol. (1980) vol. 20, pp. 441-462; Chaplan et al. “Quantitative assessment of tactile allodynia in the rat paw” J. Neuroscience Methods (1994) vol. 53 pp. 55-63), von Frey filaments of increasing stiffness were applied to the plantar surface of the hindpaws and the withdrawal response of the animals was observed; for the surgically affected paw with neuropathic pain (the left side paw) the baseline level of allodynia has a withdrawal threshold of ≦4 g of pressure. By comparison, for the control paw without allodynia (in this case the right side paw), the typical withdrawal pressure is around 15 g. Representative compounds of the invention, administered intraperitoneally 30 minutes before testing, are able to reduce the symptoms of neuropathic pain and induce a dose-dependent increase in the withdrawal threshold for allodynic (left side) limb, up to a maximum effect of 15 g. The efficacy of the compound in reducing neuropathic pain at different doses is determined by comparing response in the surgery-affected paw versus the response in the control paw. This is expressed as the MPE (maximum percent effect), or 100 times the withdrawal threshold of the allodynic (left side) divided by the withdrawal threshold of the control (right side).

Data set [4] has as its system inflammatory pain. The experiment in a line: Carrageenan-induced thermal hyperalgesia, hotbox assay. Type of data set: in vivo. The following applies: 90 minutes after carrageenan, tested 30 minutes after dosing. Here is the method: To assess the effectiveness of representative compounds of the invention against acute model inflammatory pain, animals were tested in an acute model of carrageenan-induced thermal hyperalgesia (see for example, Honore, et al. Behavioural Brain Research 167 (2006) 355-364; Porreca, et al. Journal of Pharmacology and Experimental Therapeutics (2006) vol. 318 pp. 195-205). Carrageenan was injected into the test paw of the animal, and after 90 minutes, the test drug was administered by intraperitoneal dosing. The effect on thermal hyperalgesia was assessed in a hotbox assay which was done 30 minutes after the intraperitoneal dosing of the test drug, and the MPE (maximal percent effect) reported by comparison to the control paw (not injected with carrageenan), according to 100 times the withdrawal latency of the carrageenan injected paw (in seconds) divided by the withdrawal latency of the control (not injected with carrageenan) paw.

Data set [5] relates to thermal hyperalgesia. The experiment in a line: Complete Freund's adjuvant-induced thermal hyperalgesia. Type of data set: in vivo, rat. The following applies: 30 minutes before testing, 48 hours after CFA, thermal stimulus. The procedure:
To assess the effectiveness of representative compounds of the invention against hyperalgesia, animals were tested in an acute model of adjuvant-induced thermal hyperalgesia (see for example, Honore, et al. Behavioural Brain Research 167 (2006) 355-364; Carroll, et al. US Patent application US 2006/0025614A 1). To prepare animals for the model, a solution of Complete Freund's adjuvant (150 microliters of a 50% aqueous solution, Sigma Chemical Company, St. Louis, Mo.) was injected into the plantar surface of test paw of the animal (rat). Rats so injected develop a hyperalgesia to thermal stimulation which is assessed 48 hours after injection of the Complete Freund's adjuvant using a commercially available paw thermal stimulator (UARDG, Dept. of Anesthesiology, Univ. California at San Diego, La Jolla, Calif.). For testing, rats were placed individually in a so-called ‘hot box’ (i.e. Plexiglass cubicles mounted on a glass surface) maintained at 30° C., and allowed a 30 minute habituation period. A thermal stimulus, in the form of radiant heat emitted from a focused projection bulb, was then applied to the plantar surface of each hind paw. The stimulus current was maintained (e.g. at 4.5 Amp) and the time of exposure set to limit the extent of possible tissue damage (e.g. maximum of 20 seconds exposure to thermal heating from the projection bulb). The time (in seconds) for the withdrawal of the paw that was injected with the Complete Freund's adjuvant (CFA) and subjected to the thermal stimulus was recorded, and this was compared to the time (in seconds) for withdrawal of the uninjected paw subjected to the same thermal stimulus. […] To test the effect of a compound on the hyperalgesia, the test compound is dissolved in a vehicle (e.g. water or saline) and administered by i.p. (intraperitoneal) injection 30 minutes before the testing of the animal's response to the thermal stimulus to the paws. The antihyperalgesic activity of the compound in blocking the pain is shown by an increase in the time to withdraw the CFA-injected paw subjected to thermal stimulus. Experiments are done with single-dose and escalating-dosages of the test compound, and dose response curves constructed to determine ED50 values.

The test system of data set [6] is mechanical allodynia after skin incision. Put plainly: Surgical skin incision model, mechanical allodynia by von Frey hair. Type of data set: in vivo, rat. The procedure: This is a surgical skin incision model (Joshi, et al. Pain 123 (2006) 75-82). Animals (rats) were prepared for testing by subjecting them to a surgical procedure carried out under sterile conditions, where the plantaris muscle was elevated and incised longitudinally with the origin and insertion of the muscle remaining intact. The skin was then closed with two mattress sutures (e.g. 5-0 nylon sutures). After surgery, animals were allowed to recover on a warming plate and housed individually in cages with soft bedding. […] Animals were tested for mechanical allodynia using von Frey hair mechanical stimulation 2, 24, and 48 h after surgery as described for the Chung model.

The subject of data set [7] is osteoarthritis pain. The experiment in a line: MIA-induced knee joint osteoarthritis model, hind limb grip force. Type of data set: in vivo, rat. To be noted: 100 micromole/kg i.p.; grip force 20 days after MIA; % return to normalcy vs naïve group. The procedure:
Unilateral knee joint osteoarthritis was induced in rats by a single intra-articular (i.a.) injection of sodium monoiodoacetate (MIA) (Sigma-Aldrich, St. Louis, Mo.) (3 mg in 50 ul sterile isotonic saline) into the right knee joint cavity under light (1-3%) isoflurane anesthesia.
Pain behavior was assessed by measurement of hind limb grip force (GF) in adult osteoarthritic rats. Following the unilateral injection of MIA (male Sprague Dawley, 325-350 g, tested at 20 days following MIA injection), a behavioral measure of activity-induced pain was carried out. Measurements of the peak hind limb grip force were conducted by recording the maximum compressive force (CFmax), in grams of force, exerted on a hind limb strain gauge setup, in a commercially available grip force measurement system (Columbus Instruments, Columbus, Ohio).
During testing, each rat was gently restrained by grasping it around its rib cage and then allowed to grasp the wire mesh frame attached to the strain gauge. The experimenter then moved the animal in a rostral-to-caudal direction until the grip was broken. Each rat was sequentially tested twice at approximately 2-3 min interval to obtain a raw mean grip force (CFmax). This raw mean grip force data was in turn converted to a maximum hindlimb cumulative compressive force (CFmax), as the grams of force/kg of body weight, for each animal.
For evaluating the compound effects, the hind limb grip force was conducted 20 days following the intra-articular injection of MIA. A group of age-matched naïve (not injected with MIA) animals was added as a comparator to the drug-dosed groups. The vehicle control response for each group of MIA-treated animals was defined as the 0% response (0% effect), whereas the naïve control group was defined as the normal response and as 100% effect. The % effects for each dose group was expressed as % return of response to normalcy, compared to the naïve group. That is, the % effect=(Treatment CFmax−Vehicle CFmax)/[…]]×100). All experiments evaluating drug effects in this model were conducted in a randomized blinded fashion.

[8] abbreviates: displacement of [3H]-histamine, 25° C., 1 h, read-out: Potency in Competition Binding Assay.

T1 sequence (Q9H3N8 whole entry, species assumed): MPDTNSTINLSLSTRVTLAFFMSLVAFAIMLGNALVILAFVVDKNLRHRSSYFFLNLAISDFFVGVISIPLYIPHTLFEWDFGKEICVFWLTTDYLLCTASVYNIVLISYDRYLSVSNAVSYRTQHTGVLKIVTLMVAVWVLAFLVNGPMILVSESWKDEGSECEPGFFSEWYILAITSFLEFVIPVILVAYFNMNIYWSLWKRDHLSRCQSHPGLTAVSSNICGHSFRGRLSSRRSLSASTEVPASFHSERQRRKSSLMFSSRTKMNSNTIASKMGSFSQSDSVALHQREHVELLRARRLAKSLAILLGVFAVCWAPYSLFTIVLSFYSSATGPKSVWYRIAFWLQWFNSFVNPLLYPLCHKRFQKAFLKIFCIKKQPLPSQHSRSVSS

Take `Nc1nc2c(c(N3CCNCC3)n1)CCCc1ccccc1-2` [Example 5, 4-piperazin-1-yl-6,7-dihydro-5H-benzo[6,7]cyclohepta[1,2-d]pyrimidin-2-ylamine]: in data set [1], the “Potency in the FLIPR assay” value stood at 15 nM. The pKi in data set [2] (setting [8]) was 7.10. The MPE amounted to 28% in data set [3] and 23% in data set [4] (100 micromole/kg i.p.).

Broadly, the melting point is the temperature of the solid-liquid transition. As for `CN1CCN(c2cc(-c3cccnc3)nc(N)n2)CC1.O=C(O)/C=C\C(=O)O` [Example 2, 4-(4-Methylpiperazin-1-yl)-6-(pyridin-3-yl)pyrimidin-2-amine, maleate], the melting point was 175 to 178 °C (dec.). Besides, the MPE in data set [5] (30 micromole/kg i.p.) is listed as 51%. Further, the MPE in data set [5] (100 micromole/kg i.p.) came out at 83%. In addition, the “Potency in the FLIPR assay” value in data set [1] worked out at 200 nM. In addition, in data set [2] (setting [8]), the pKi was 6.75.

Consider `O=S(=O)(NCCc1c[nH]cn1)NCc1ccc(Cl)c(Cl)c1` [Example 7, Sulfamide, N-[(3,4-dichlorophenyl)methyl]-N′-[2-(1H-imidazol-4-yl)ethyl]-], for which the “Potency in the FLIPR assay” value in data set [1] amounted to 34 nM. The same compound had a pKi in data set [2] of 7.48. For the same compound, the MPE in data set [6] (3 micromole/kg i.p.) is on record as 33%; in data set [6] (10 micromole/kg i.p.) it was 50%; in data set [4] (3 micromole/kg i.p.), 33%; in data set [4] (10 micromole/kg i.p.) it was 42%; in data set [4] (30 micromole/kg i.p.) it was 93%. For the same compound, in data set [7], the “% Effect” value came out at 22%.

Turning to `Nc1nc2c(c(N3CC[C@@H](N)C3)n1)CCCc1ccccc1-2` [Example 4, 4-((3R)-3-Amino-pyrrolidin-1-yl)-6,7-dihydro-5H-benzo[6,7]cyclohepta[1,2-d]pyrimidin-2-ylamine], the figures for the MPE in data set [3] and in data set [4] (100 micromole/kg i.p.) were 47% and 68%, respectively.
